Laboratory results as given in publication PMC4207771, “Identification and Characterization of Novel Renal Sensory Receptors” (PLoS ONE, 2014).

Key:
[1] = target: T1, Olfr691 (Mus musculus, UniProt Q8VGW5); assay: dual-luciferase (cAMP/CREB reporter) ligand screen, Olfr691 in HEK293T cells; format: cell-based; conditions: for Olfr691 response in dual-luciferase assay: chemicals tested individually, screened at 500uM (* also at 100uM); for Olfr691 response (in words): luciferase assay, co-expressed with RTP1S; for Relative response (% of 4-pentenoate response) at 500 µM: HEK-293T, 4 h
T1 construct: Lucy (N); expressed in transfected cells; host or cells: HEK293T, co-transfected with RTP1S
T1 sequence (Q8VGW5 1-322): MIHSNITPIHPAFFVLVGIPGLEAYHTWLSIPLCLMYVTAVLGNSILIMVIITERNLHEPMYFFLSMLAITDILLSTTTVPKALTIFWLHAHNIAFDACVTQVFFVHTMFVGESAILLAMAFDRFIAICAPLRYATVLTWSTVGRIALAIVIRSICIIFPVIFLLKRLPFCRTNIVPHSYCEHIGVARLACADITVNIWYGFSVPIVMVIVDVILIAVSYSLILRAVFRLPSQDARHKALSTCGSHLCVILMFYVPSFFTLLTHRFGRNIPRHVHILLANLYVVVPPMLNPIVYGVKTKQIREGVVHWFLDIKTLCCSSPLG

[2] = test system: Olfr545; assay: dual-luciferase (cAMP/CREB reporter) ligand screen, Olfr545 in HEK293T cells; format: cell-based, mouse; design: key to Olfr545 response in dual-luciferase assay: ‘+’ or ‘–‘ in each column indicates if the olfactory receptor responded or had no effect to that specific chemical; -: ‘+’ or ‘–‘ in each column indicates if the olfactory receptor responded or had no effect to that specific chemical; conditions: for Olfr545 response in dual-luciferase assay: chemicals tested individually, screened at 500uM (* also at 100uM)
[3] = test system: Olfr99; assay: dual-luciferase (cAMP/CREB reporter) ligand screen, Olfr99 in HEK293T cells; format: cell-based, mouse; design: key: ‘+’ or ‘–‘ in each column indicates if the olfactory receptor responded or had no effect to that specific chemical; -: ‘+’ or ‘–‘ in each column indicates if the olfactory receptor responded or had no effect to that specific chemical; conditions: chemicals tested individually, screened at 500uM (* also at 100uM)
[4] = target: T2, Olfr31 (Mus musculus, UniProt Q3KPA7); assay: dual-luciferase (cAMP/CREB reporter) ligand screen, Olfr31 in HEK293T cells; format: cell-based; conditions: chemicals tested individually, screened at 500uM (* also at 100uM)
T2 construct: expressed in transfected cells; host or cells: HEK293T, co-transfected with RTP1S
T2 sequence (Q3KPA7 1-317): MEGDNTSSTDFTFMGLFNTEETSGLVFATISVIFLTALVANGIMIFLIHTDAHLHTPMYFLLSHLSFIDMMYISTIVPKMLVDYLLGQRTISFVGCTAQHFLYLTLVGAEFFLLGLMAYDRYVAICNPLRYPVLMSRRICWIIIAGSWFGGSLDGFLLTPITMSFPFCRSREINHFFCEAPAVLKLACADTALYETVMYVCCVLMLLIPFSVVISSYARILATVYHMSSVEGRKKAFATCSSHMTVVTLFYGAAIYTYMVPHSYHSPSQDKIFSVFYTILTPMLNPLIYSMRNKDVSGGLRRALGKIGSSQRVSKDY

[5] = test system: Olfr693; assay: dual-luciferase (cAMP/CREB reporter) ligand screen, Olfr693 in HEK293T cells; format: cell-based, mouse; design: key: ‘+’ or ‘–‘ in each column indicates if the olfactory receptor responded or had no effect to that specific chemical; -: ‘+’ or ‘–‘ in each column indicates if the olfactory receptor responded or had no effect to that specific chemical; conditions: chemicals tested individually, screened at 500uM (* also at 100uM)
[6] = 0.5 mM ligand, normalized to the response of Olfr691 to the strongest ligand, 4-pentenoate

| Olfr691 response in dual-luciferase assay [1] | Olfr31 response in dual-luciferase assay [4] | Olfr691 response (in words) [1] | Relative response (% of 4-pentenoate response) at 500 µM [1, 6] | EC50 ([1]; Olfr691 co-expressed with RTP1S in HEK293T cells, 10 µM to 7.5 mM) | Olfr691 response (in words) ([1]; listed as 4-Pentenoate) | Relative response at 0.5mM [1, 6] | SMILES | Olfr545 response in dual-luciferase assay [2] | Olfr99 response in dual-luciferase assay [3] | Olfr693 response in dual-luciferase assay [5] | Olfr691 response (in words) ([1]; listed as 4-pentenoate) | Olfr545 response (in words) ([2]; luciferase assay) |
| --- | --- | --- | --- | --- | --- | --- | --- | --- | --- | --- | --- | --- |
| - | - |  |  |  |  |  | CC(C)(C)C1CCC(O)CC1 (stereo not shown) [4-tert-butylcyclohexanol] | - | - | - |  |  |
| - | - | not including |  |  |  |  | CC(=O)O [acetic acid] | - | - | - |  |  |
| - | - |  |  |  |  |  | O=c1[nH]c(=O)c2[nH]c(=O)[nH]c2[nH]1 [Uric acid] | - | - | - |  |  |
| - | - |  |  |  |  |  | CC(C)C=O [Isobutyraldehyde] | - | - | - |  |  |
| - | - |  |  |  |  |  | CC1(C)C2CCC(=O)C1C2 (stereo not shown) [nopinone] | - | - | - |  |  |
| - | - |  |  |  |  |  | CCCCCCCCCCCC(=O)O [dodecanoic acid] | - | - | - |  |  |
| + | - | responds |  |  |  | 42 ± 3.1 | CCC(=O)O [propionate] | - | - | - |  |  |
| + | - |  | 55 ± 2.5% |  |  |  | CCCC(=O)O [butyrate] | - | - | - |  |  |
| - | - |  |  |  |  |  | CCCCCCCCC=O [nonanal] | - | - | - |  |  |
| - | - |  |  |  |  |  | C=CCc1ccc(O)c(OC)c1 [eugenol] | - | - | - |  |  |
| - | - |  |  |  |  |  | CC12CCC(CC1=O)C2(C)C (stereo not shown) [Camphor] | - | - | - |  |  |
| - | - |  |  |  |  |  | C=CC(C)(O)CCC=C(C)C (stereo not shown) [linalool] | - | - | - |  |  |
| - | - |  |  |  |  |  | O=C(O)C1CCCCC1 [Cyclohexanecarboxylic acid] | - | - | - |  |  |
| - | - |  |  |  |  |  | C=CCSCC=C [allyl sulfide] | - | - | - |  |  |
| + | - |  | 39 ± 3% |  |  |  | C/C=C/C(=O)O [crotonic acid] | - | - | - |  |  |
| - | - |  |  |  |  |  | O=C(O)CC(=O)O [Malonate] | - | - | - |  |  |

More lines, now with the values behind:

| SMILES | Olfr691 response in dual-luciferase assay [1] | Olfr31 response in dual-luciferase assay [4] | Olfr691 response (in words) [1] | Relative response (% of 4-pentenoate response) at 500 µM [1, 6] | EC50 ([1]; Olfr691 co-expressed with RTP1S in HEK293T cells, 10 µM to 7.5 mM) | Olfr691 response (in words) ([1]; listed as 4-Pentenoate) | Relative response at 0.5mM [1, 6] | Olfr545 response in dual-luciferase assay [2] | Olfr99 response in dual-luciferase assay [3] | Olfr693 response in dual-luciferase assay [5] | Olfr691 response (in words) ([1]; listed as 4-pentenoate) | Olfr545 response (in words) ([2]; luciferase assay) |
| --- | --- | --- | --- | --- | --- | --- | --- | --- | --- | --- | --- | --- |
| CC(=O)c1c(C)c([N+](=O)[O-])c(C(C)(C)C)c([N+](=O)[O-])c1C [musk ketone] | - | - |  |  |  |  |  | - | - | - |  |  |
| C=CCCC(=O)O [4-pentenoic acid] | + | - |  | 100 ± 10.6% | 901 µM | induced the strongest response |  | - | - | - | induced the strongest cAMP responses at all doses |  |
| C[N+](C)(C)[O-] [Trimethylamine N-oxide] | - | - |  |  |  |  |  | - | - | - |  |  |
| SCCCCCCS [1,6-hexanedithiol] | - | - |  |  |  |  |  | - | - | - |  |  |
| O=C(O)CCCCCCCCC(=O)O [sebacic acid] | - | - |  |  |  |  |  | - | - | - |  | did not induce a response |
| CCCCCOC(=O)CCCCC [Amylhexanoate] | - | - |  |  |  |  |  | - | - | - |  |  |
| CC(=O)C=O [Pyruvaldehyde] | - | - |  |  |  |  |  | - | - | - |  |  |
| CCCCCCCCC(=O)O [nonanoic acid] | - | - |  |  |  |  |  | - | - | - |  |  |
| N[C@@H](CCC(=O)O)C(=O)O [l-glutamate] | - | - |  |  |  |  |  | - | - | - |  |  |
| O=Cc1ccccc1 [benzaldehyde] | - | - |  |  |  |  |  | - | - | - |  |  |
| CCCCCC(C)O (stereo not shown) [2-Heptanol] | - | - |  |  |  |  |  | - | - | - |  |  |
| CCCCCC(=O)CC [3-octanone] | - | - |  |  |  |  |  | - | - | - |  |  |
| CCCC(=O)C(C)=O [2,3-hexadione] | - | - |  |  |  |  |  | - | - | - |  |  |
| Cc1ccc(C)s1 [2,5-Dimethylthiophene] | - | - |  |  |  |  |  | - | - | - |  |  |
